Measured values taken from ChEMBL document CHEMBL4673346, “Discovery of a benzimidazole series as the first highly potent and selective ACSL1 inhibitors” (Bioorg Med Chem Lett, 2021).

Experiments:
[1] = biological target: T1, Long-chain-fatty-acid--CoA ligase 1 (Mus musculus, UniProt P41216); experiment: Inhibition of recombinant mouse ACSL1 assessed as reduction in […] prodution incubated for 90 mins in presence of Coenzyme A, ATP and MgCl2 by MALDI-TOF MS analysis
T1 sequence (P41216 whole entry): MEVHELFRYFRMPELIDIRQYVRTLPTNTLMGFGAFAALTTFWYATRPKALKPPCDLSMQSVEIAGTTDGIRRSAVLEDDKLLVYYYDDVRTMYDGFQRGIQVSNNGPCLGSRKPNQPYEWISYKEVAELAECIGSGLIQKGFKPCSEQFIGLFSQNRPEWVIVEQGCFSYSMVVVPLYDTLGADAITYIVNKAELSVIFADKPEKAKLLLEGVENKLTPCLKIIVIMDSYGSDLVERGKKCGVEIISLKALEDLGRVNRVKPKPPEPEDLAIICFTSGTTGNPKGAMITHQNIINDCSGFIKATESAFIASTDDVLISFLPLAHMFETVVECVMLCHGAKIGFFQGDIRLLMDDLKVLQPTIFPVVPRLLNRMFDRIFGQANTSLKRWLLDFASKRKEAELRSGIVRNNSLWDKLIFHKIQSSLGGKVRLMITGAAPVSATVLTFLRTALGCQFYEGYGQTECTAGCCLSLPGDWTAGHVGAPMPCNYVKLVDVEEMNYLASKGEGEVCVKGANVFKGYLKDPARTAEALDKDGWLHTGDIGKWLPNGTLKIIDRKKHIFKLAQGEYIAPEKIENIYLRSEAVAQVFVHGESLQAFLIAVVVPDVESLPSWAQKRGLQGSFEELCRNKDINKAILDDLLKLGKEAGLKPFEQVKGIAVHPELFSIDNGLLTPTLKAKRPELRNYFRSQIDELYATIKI

[2] = biological target: T2, Long-chain-fatty-acid--CoA ligase 1 (Homo sapiens, UniProt P33121); experiment: Inhibition of recombinant human ACSL1 assessed as reduction in […] prodution incubated for 90 mins in presence of Coenzyme A, ATP and MgCl2 by MALDI-TOF MS analysis
T2 sequence (P33121 whole entry): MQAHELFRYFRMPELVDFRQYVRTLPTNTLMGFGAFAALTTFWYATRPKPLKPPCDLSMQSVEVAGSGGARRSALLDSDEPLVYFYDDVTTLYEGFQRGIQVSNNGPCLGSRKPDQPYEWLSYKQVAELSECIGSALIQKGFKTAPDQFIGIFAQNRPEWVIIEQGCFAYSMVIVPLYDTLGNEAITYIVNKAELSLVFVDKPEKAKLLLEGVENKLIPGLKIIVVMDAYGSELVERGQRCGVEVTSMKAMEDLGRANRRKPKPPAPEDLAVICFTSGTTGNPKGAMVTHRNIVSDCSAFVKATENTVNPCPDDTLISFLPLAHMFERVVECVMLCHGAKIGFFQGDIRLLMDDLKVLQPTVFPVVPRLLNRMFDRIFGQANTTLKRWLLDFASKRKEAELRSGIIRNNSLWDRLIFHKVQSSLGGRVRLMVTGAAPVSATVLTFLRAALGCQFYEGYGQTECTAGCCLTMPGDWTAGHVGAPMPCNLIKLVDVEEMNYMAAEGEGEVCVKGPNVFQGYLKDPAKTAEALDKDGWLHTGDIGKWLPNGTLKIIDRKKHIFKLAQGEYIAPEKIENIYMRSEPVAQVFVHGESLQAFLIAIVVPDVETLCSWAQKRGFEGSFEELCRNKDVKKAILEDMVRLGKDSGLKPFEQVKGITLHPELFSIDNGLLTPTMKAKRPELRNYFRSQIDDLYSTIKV

[3] = biological target: T3, Long-chain-fatty-acid--CoA ligase 6 (Homo sapiens, UniProt Q9UKU0); experiment: Inhibition of recombinant human ACSL6 assessed as reduction in […] prodution incubated for 60 mins in presence of Coenzyme A, ATP and MgCl2 by MALDI-TOF MS analysis
T3 sequence (Q9UKU0 whole entry): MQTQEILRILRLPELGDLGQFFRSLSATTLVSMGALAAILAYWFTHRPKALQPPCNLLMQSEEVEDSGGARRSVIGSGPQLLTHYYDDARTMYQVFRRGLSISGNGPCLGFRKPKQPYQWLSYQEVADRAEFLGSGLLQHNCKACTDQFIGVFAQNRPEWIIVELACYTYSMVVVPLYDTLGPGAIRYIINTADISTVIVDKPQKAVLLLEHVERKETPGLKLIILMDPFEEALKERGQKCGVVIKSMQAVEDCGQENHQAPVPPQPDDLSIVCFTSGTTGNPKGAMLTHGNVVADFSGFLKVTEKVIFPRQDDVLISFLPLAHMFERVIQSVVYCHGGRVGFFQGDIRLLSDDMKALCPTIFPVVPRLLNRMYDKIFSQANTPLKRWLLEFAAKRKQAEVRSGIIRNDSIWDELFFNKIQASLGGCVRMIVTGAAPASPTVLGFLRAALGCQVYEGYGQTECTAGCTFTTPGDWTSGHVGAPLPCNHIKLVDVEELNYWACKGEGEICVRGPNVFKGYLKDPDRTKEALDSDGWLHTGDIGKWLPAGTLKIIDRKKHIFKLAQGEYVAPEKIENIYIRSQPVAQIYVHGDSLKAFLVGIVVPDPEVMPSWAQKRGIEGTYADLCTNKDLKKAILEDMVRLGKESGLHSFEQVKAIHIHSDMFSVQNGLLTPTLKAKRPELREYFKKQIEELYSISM

[4] = biological target: Long-chain-fatty-acid--CoA ligase 4 (Homo sapiens, UniProt O60488); experiment: Inhibition of recombinant human ACSL4 assessed as reduction in […] prodution incubated for 120 mins in presence of Coenzyme A, ATP and MgCl2 by MALDI-TOF MS analysis
Chain of Long-chain-fatty-acid--CoA ligase 4 (O60488 whole entry): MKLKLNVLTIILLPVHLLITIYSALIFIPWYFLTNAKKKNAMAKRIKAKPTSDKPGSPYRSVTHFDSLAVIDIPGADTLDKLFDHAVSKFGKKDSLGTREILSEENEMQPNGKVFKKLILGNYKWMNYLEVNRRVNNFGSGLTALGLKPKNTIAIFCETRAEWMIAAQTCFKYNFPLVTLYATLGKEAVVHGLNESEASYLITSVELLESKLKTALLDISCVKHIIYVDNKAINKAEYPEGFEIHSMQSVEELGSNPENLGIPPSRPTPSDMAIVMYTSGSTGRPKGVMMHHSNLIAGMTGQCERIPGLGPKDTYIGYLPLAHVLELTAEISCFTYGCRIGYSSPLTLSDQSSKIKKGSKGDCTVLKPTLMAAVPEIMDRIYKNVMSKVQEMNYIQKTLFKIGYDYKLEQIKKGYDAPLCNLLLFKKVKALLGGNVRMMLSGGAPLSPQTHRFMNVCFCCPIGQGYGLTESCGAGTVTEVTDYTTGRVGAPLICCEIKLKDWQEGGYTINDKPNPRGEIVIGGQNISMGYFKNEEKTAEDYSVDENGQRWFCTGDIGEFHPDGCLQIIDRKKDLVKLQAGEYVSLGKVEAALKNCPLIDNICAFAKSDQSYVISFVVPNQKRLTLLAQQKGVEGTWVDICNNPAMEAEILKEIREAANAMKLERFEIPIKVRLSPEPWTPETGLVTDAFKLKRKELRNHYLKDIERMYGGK

[5] = biological target: T4, Long-chain-fatty-acid--CoA ligase 5 (Homo sapiens, UniProt Q9ULC5); experiment: Inhibition of recombinant human ACSL5 assessed as reduction in […] prodution incubated for 90 mins in presence of Coenzyme A, ATP and MgCl2 by MALDI-TOF MS analysis
T4 sequence (Q9ULC5 whole entry): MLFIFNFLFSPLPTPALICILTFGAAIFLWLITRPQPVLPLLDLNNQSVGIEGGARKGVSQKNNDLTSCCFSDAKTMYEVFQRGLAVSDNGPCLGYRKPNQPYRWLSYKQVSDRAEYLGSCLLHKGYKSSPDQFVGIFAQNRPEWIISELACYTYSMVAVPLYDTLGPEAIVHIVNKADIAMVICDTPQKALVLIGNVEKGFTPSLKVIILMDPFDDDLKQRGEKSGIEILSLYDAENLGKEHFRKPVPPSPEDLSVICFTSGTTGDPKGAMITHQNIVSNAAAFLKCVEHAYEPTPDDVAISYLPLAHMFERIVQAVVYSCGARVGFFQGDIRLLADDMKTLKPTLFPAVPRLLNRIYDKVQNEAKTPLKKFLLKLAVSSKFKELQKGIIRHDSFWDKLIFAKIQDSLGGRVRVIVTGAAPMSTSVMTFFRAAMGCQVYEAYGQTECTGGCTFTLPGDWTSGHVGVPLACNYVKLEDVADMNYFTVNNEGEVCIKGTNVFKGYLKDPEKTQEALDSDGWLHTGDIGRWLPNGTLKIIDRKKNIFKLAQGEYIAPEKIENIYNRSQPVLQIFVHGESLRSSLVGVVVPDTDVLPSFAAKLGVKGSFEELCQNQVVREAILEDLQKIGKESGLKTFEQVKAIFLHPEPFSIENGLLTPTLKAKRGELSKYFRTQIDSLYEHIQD

[6] = biological target: Fatty acid CoA ligase Acsl3 (Homo sapiens, UniProt O95573); experiment: Inhibition of recombinant human ACSL3 assessed as reduction in […] prodution incubated for 90 mins in presence of Coenzyme A, ATP and MgCl2 by MALDI-TOF MS analysis
Chain of Fatty acid CoA ligase Acsl3 (O95573 whole entry): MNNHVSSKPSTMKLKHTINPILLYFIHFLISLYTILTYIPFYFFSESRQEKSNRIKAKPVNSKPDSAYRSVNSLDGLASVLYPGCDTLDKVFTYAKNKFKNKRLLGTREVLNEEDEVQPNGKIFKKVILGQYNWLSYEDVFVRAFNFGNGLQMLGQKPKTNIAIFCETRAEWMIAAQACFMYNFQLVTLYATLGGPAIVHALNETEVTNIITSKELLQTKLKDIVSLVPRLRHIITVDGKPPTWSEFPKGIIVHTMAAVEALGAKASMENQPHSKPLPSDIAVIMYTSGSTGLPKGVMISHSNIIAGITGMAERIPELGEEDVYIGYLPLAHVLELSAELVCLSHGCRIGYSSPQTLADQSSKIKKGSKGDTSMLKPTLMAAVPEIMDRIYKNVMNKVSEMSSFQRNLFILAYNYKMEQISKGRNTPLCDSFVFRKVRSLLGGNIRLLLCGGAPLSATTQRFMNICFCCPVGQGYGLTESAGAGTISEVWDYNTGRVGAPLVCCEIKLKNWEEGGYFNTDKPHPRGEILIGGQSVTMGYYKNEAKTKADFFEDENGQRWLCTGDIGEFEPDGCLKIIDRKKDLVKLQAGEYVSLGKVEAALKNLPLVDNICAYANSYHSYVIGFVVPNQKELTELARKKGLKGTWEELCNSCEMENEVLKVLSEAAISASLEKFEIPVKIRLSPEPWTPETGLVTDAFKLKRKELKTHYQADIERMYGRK

[7] = biological target: T2, Long-chain-fatty-acid--CoA ligase 1; experiment: Inhibition of ACSL1 (unknown origin) assessed as reduction in […] prodution incubated for 90 mins in presence of Coenzyme A, ATP and MgCl2 by MALDI-TOF MS analysis

Structure (SMILES) | IC50 [1] | IC50 [2] | also measured
O=c1c2ccccc2oc2ccc(O[C@H]3CC[C@@H](C(=O)O)CC3)cc12 | – | – | IC50 [3]: 70000 nM; IC50 [4]: > 200000 nM; IC50 [5]: > 200000 nM; IC50 [6]: 69000 nM; IC50 [7]: 240 nM
Cn1c(Cc2cccnc2)nc2cc(O[C@H]3CC[C@@H](C(=O)O)CC3)ccc21 | > 200000 nM | 141000 nM | –
O=C(O)c1ccc(Oc2ccc3oc4ccccc4c(=O)c3c2)cc1 | – | – | IC50 [7]: > 200000 nM
Cc1cccc(Cc2nc3cc(O[C@H]4CC[C@@H](C(=O)O)CC4)ccc3o2)c1 | 140 nM | 39 nM | –
O=c1c2ccccc2oc2ccc(OC[C@H]3CC[C@H](C(=O)O)CC3)cc12 | – | – | IC50 [7]: > 200000 nM
Cn1c(Cc2ccc3c(c2)OCC3)nc2cc(O[C@H]3CC[C@@H](C(=O)O)CC3)ccc21 | 36 nM | 13 nM | –
O=C(O)CCCCCCOc1ccc2oc3ccccc3c(=O)c2c1 | – | – | IC50 [3]: 6200 nM; IC50 [4]: > 200000 nM; IC50 [5]: > 200000 nM; IC50 [6]: 114000 nM; IC50 [7]: 310 nM
Cc1cccc(Cc2cc3cc(O[C@H]4CC[C@@H](C(=O)O)CC4)ccc3n2C)c1 | 400 nM | 400 nM | –
Cc1cccc(Cc2nc3cc(O[C@H]4CC[C@@H](c5noc(=O)[nH]5)CC4)ccc3n2C)c1 | 100 nM | 47 nM | –
O=c1c2ccccc2oc2ccc(O[C@H]3CC[C@H](C(=O)O)CC3)cc12 | 1400 nM | 240 nM | IC50 [7]: > 200000 nM
Cc1cccc(Cc2nc3cc(O[C@H]4CC[C@@](F)(c5nnn[nH]5)CC4)ccc3n2C)c1 | 13 nM | 13 nM | –
Cc1cccc(Cc2nc3c(Cl)c(O[C@H]4CC[C@@H](C(=O)O)CC4)ccc3n2C)c1 | 56000 nM | 61000 nM | –
Cc1cccc(Cc2nc3nc(O[C@H]4CC[C@@H](C(=O)O)CC4)ccc3n2C)c1 | 79 nM | 44 nM | –
Cc1cccc(Cc2nc3cc(O[C@H]4CC[C@@H](c5nnn[nH]5)CC4)ccc3n2C)c1 | 25 nM | 34 nM | –
Cc1cccc(Oc2nc3cc(O[C@H]4CC[C@@H](C(=O)O)CC4)ccc3n2C)c1 | 21000 nM | 78000 nM | –
O=C(O)CCCCOc1ccc2oc3ccccc3c(=O)c2c1 | – | – | IC50 [3]: 93000 nM; IC50 [4]: > 200000 nM; IC50 [5]: > 200000 nM; IC50 [6]: > 200000 nM; IC50 [7]: 1700 nM
O=C(O)C[C@H]1CC[C@@H](Oc2ccc3oc4ccccc4c(=O)c3c2)CC1 | – | – | IC50 [7]: 18000 nM
Cn1c(Cc2cccc(C(F)(F)F)c2)nc2cc(O[C@H]3CC[C@@H](C(=O)O)CC3)ccc21 | 86 nM | 190 nM | –
O=C(O)[C@H]1CC[C@@H](Oc2ccc3oc(-c4ccccc4)nc3c2)CC1 | 59000 nM | 4400 nM | –
Cc1cccc(Cn2nc3cc(O[C@H]4CC[C@@H](C(=O)O)CC4)ccc3c2C)c1 | 53 nM | 45 nM | –
O=C(O)C[C@H]1CC[C@H](Oc2ccc3oc4ccccc4c(=O)c3c2)CC1 | – | – | IC50 [7]: > 200000 nM
Cc1ccc(Cc2nc3cc(O[C@H]4CC[C@@H](C(=O)O)CC4)ccc3n2C)cc1 | 80 nM | 150 nM | –
Cc1cccc(Cc2c(C#N)c3cc(O[C@H]4CC[C@@H](C(=O)O)CC4)ccc3n2C)c1 | 600 nM | 1900 nM | –
Cc1cccc(Cc2nc3cc(O[C@H]4CC[C@@H](C(=O)O)CC4)c(Cl)cc3n2C)c1 | 100 nM | 47 nM | –
O=c1c2ccccc2oc2ccc(OC[C@H]3CC[C@@H](C(=O)O)CC3)cc12 | – | – | IC50 [7]: > 200000 nM
Cc1cccc(Cc2nc3cc(O[C@H]4CC[C@@H](C(=O)O)CC4)cc(Cl)c3n2C)c1 | 170 nM | 28 nM | –

Now from value to compound, other results behind:

IC50 [1] | IC50 [2] | Structure (SMILES) | also measured
5400 nM | 7800 nM | Cc1ccccc1Cc1nc2cc(O[C@H]3CC[C@@H](C(=O)O)CC3)ccc2n1C | –
440 nM | 600 nM | Cc1cccc(Cc2c(C(N)=O)c3cc(O[C@H]4CC[C@@H](C(=O)O)CC4)ccc3n2C)c1 | –
> 200000 nM | > 200000 nM | Cc1cccc(Cc2nc3ccc(O[C@H]4CC[C@@H](C(=O)O)CC4)cc3n2C)c1 | –
22000 nM | 51000 nM | Cn1c(Cc2cccc(C#N)c2)nc2cc(O[C@H]3CC[C@@H](C(=O)O)CC3)ccc21 | –
46000 nM | 41000 nM | Cc1cccc(Cc2nc3cc(O[C@H]4CC[C@@H](C(=O)O)CC4)ncc3n2C)c1 | –
4000 nM | 4600 nM | O=C(O)[C@H]1CC[C@@H](Oc2ccc3c(c2)Cc2ccccc2O3)CC1 | –
15 nM | 3 nM | Cn1c(Cc2ccc3c(c2)OCC3)nc2cc(O[C@H]3CC[C@@](F)(c4nnn[nH]4)CC3)ccc21 | –
> 200000 nM | > 200000 nM | Cc1cccc(Cc2nc3cc(O[C@H]4CC[C@@H](C(=O)O)CC4)ccc3n2C(C)C)c1 | –
190 nM | 950 nM | Cc1cccc(Cc2nc3cc(O[C@H]4CC[C@@H](C(N)=O)CC4)ccc3n2C)c1 | –
8100 nM | 17000 nM | Cc1cccc(COc2nc3cc(O[C@H]4CC[C@@H](C(=O)O)CC4)ccc3n2C)c1 | –
– | > 200000 nM | Cc1cccc(C(=O)c2nc3cc(O[C@H]4CC[C@@H](C(=O)O)CC4)ccc3n2C)c1 | –
